# Measurements reported in article PMC11748363, “Antimicrobial and Antiproliferative Properties of 2‐Phenyl‐N‐(Pyridin‐2‐yl)acetamides” (Chemical Biology & Drug Design, 2025).
# pIC50: −log10 of the molar value. Like-named read-outs stand apart in the source and are kept apart here.
# Legend:
# [1] = tested on: Candida tropicalis CCM 8264, ATCC 750; test: Antifungal microdilution broth MIC, CT; settings: for IC90: ATCC750|CCM8264, 24 h
# [2] = tested on: Lichtheimia corymbifera CCM 8077; test: Antifungal microdilution broth MIC, LC
# [3] = tested on: Trichophyton interdigitale CCM 8377, ATCC 9533; test: Antifungal microdilution broth MIC, TI; settings: Trichophyton interdigitale
# [4] = tested on: Candida albicans CCM 8320, ATCC 24433; test: Antifungal microdilution broth MIC, CA; settings: for IC90: ATCC24433|CCM8320, 24 h
# [5] = tested on: Aspergillus flavus CCM 8363; test: Antifungal microdilution broth MIC, AFla
# [6] = tested on: Candida parapsilosis CCM 8260, ATCC 22019; test: Antifungal microdilution broth MIC, CP; settings: Lodderomyces parapsilosis
# [7] = tested on: Candida krusei CCM 8271, ATCC 6258; test: Antifungal microdilution broth MIC, CK; settings: Pichia kudriavzevii; for IC90: ATCC6258|CCM8271, 24 h
# [8] = tested on: Aspergillus fumigatus ATCC 204305; test: Antifungal microdilution broth MIC, AF
# [9] = tested on: Mycobacterium tuberculosis H37Ra; test: Antimycobacterial microdilution broth MIC (resazurin), Mtb H37Ra; assay type: cell-based; settings: Mycobacterium tuberculosis, H37RA
# [10] = tested on: Enterococcus faecalis CCM 4224, ATCC 29212; test: Antibacterial microdilution broth MIC, EF; assay type: cell-based
# HepG2 cell line = test: Cytotoxicity CellTiter 96, HepG2; assay type: cell-based, human; settings: 24 h incubation, ^c compound precipitated in the testing medium, ^d over the limit of tested concentrations
# [11] = tested on: Mycolicibacterium smegmatis DSM 43465; test: Antimycobacterial microdilution broth MIC (resazurin), M. smegmatis; assay type: cell-based
# [12] = tested on: Klebsiella pneumoniae CCM 4415, ATCC 10031; test: Antibacterial microdilution broth MIC, KP
# [13] = tested on: Acinetobacter baumannii DSM 30007, ATCC 19606; test: Antibacterial microdilution broth MIC, ACI; assay type: cell-based
# [14] = tested on: Pseudomonas aeruginosa CCM 3955, ATCC 27853; test: Antibacterial microdilution broth MIC, PA; assay type: cell-based
# [15] = tested on: Staphylococcus aureus CCM 4223, ATCC 29213; test: Antibacterial microdilution broth MIC, SA; assay type: cell-based; settings: Staphylococcus aureus
# [16] = tested on: Staphylococcus aureus subsp. aureus CCM 4750, ATCC 43300 (MRSA); test: Antibacterial microdilution broth MIC, MRSA; assay type: cell-based; settings: Staphylococcus aureus
# [17] = tested on: Staphylococcus epidermidis CCM 4418, ATCC 12228; test: Antibacterial microdilution broth MIC, SE; assay type: cell-based
# [18] = tested on: Escherichia coli CCM 3954, ATCC 25922; test: Antibacterial microdilution broth MIC, EC; assay type: cell-based
# [19] = tested on: Mycolicibacterium aurum DSM 43999; test: Antimycobacterial microdilution broth MIC (resazurin), M. aurum; assay type: cell-based
# [20] = 24 h, read-out: MIC visual detection, CT
# [21] = CCM8077, 48 h, read-out: MIC visual detection, LC
# [22] = ATCC9533|CCM8377, 48 h, read-out: MIC visual detection, TI
# [23] = 24 h, read-out: MIC visual detection, CA
# [24] = CCM8363, 48 h, read-out: MIC visual detection, AFla
# [25] = ATCC22019|CCM8260, 24 h, read-out: MIC visual detection, CP
# [26] = 24 h, read-out: MIC visual detection, CK
# [27] = ATCC204305, 48 h, read-out: MIC visual detection, AF
# [28] = read-out: MIC Mtb H37Ra (μg/mL)
smiles,measurement,setting,value
"C[C@@H]1[C@H](O)[C@@H](C)/C=C/C=C/C=C/C=C/C=C/C=C/C=C/[C@H](O[C@@H]2O[C@H](C)[C@@H](O)[C@H](N)[C@@H]2O)C[C@@H]2O[C@](O)(C[C@@H](O)C[C@@H](O)[C@H](O)CC[C@@H](O)C[C@@H](O)CC(=O)O[C@H]1C)C[C@H](O)[C@H]2C(=O)O [Amphotericin B, amphotericin B, reference compound]",MIC,[1]; [20],1 µg/mL
same,IC90,"[1]; read-out: Amphotericin B - IC90 spectrophotometric detection, CT",1 µg/mL
same,IC90,"[2]; CCM8077, 48 h, read-out: Amphotericin B - IC90 spectrophotometric detection, LC",1 µg/mL
same,MIC,[2]; [21],1 µg/mL
same,IC90,"[3]; ATCC9533|CCM8377, 48 h, read-out: Amphotericin B - IC90 spectrophotometric detection, TI",1 µg/mL
same,MIC,[3]; [22],1 µg/mL
same,MIC,[4]; [23],1 µg/mL
same,IC90,"[4]; read-out: Amphotericin B - IC90 spectrophotometric detection, CA",1 µg/mL
same,IC90,"[5]; CCM8363, 48 h, read-out: Amphotericin B - IC90 spectrophotometric detection, AFla",4 µg/mL
same,MIC,[5]; [24],4 µg/mL
same,IC90,"[6]; ATCC22019|CCM8260, 24 h, read-out: Amphotericin B - IC90 spectrophotometric detection, CP",0.5 µg/mL
same,MIC,[6]; [25],0.5 µg/mL
same,MIC,[7]; [26],1 µg/mL
same,IC90,"[7]; read-out: Amphotericin B - IC90 spectrophotometric detection, CK",1 µg/mL
same,IC90,"[8]; ATCC204305, 48 h, read-out: Amphotericin B - IC90 spectrophotometric detection, AF",4 µg/mL
same,MIC,[8]; [27],4 µg/mL
"O=C(O)c1cn(C2CC2)c2cc(N3CCNCC3)c(F)cc2c1=O [CIP, ciprofloxacin, reference compound]",MIC,[9]; read-out: MIC Mtb H37Ra (μM),0.38 to 0.75 µM
same,MIC,[9]; [28],0.125 to 0.25 µg/mL
O=C(Cc1ccccc1)Nc1ccccn1 [Compound 1],MIC,"[1]; 24 h, read-out: MIC CT 24h",500 µM
same,MIC,"[1]; 48 h, read-out: MIC CT 48h",500 µM
same,MIC,"[10]; 24 h, read-out: MIC EF 24h",> 500 µM
same,MIC,"[10]; 48 h, read-out: MIC EF 48h",> 500 µM
same,pIC50,HepG2 cell line,< 3.00
same,pIC50,"HepG2 cell line; Homo sapiens, HepG2, 24 h",< 3.30
same,MIC,"[11]; DSM43465, read-out: MIC M. smegmatis",62.5 µg/mL
same,MIC,[9]; read-out: MIC Mtb H37Ra (μM),147 µM
same,MIC,[9]; [28],31.2 µg/mL
same,MIC,"[2]; CCM8077, 24 h, read-out: MIC LC 24h",> 500 µM
same,MIC,"[2]; CCM8077, 48 h, read-out: MIC LC 48h",> 500 µM
same,MIC KP 24h,[12]; 24h,> 500 µM
same,MIC KP 48h,[12]; 48h,> 500 µM
same,MIC,"[3]; 72 h, read-out: MIC TI 72h",500 µM
same,MIC,"[3]; 120 h, read-out: MIC TI 120h",500 µM
same,MIC,"[13]; 24 h, read-out: MIC ACI 24h",> 500 µM
same,MIC,"[13]; 48 h, read-out: MIC ACI 48h",> 500 µM
same,MIC,"[4]; 24 h, read-out: MIC CA 24h",500 µM
same,MIC,"[4]; 48 h, read-out: MIC CA 48h",500 µM
same,MIC,"[14]; 24 h, read-out: MIC PA 24h",> 500 µM
same,MIC,"[14]; 48 h, read-out: MIC PA 48h",> 500 µM
same,MIC,"[15]; 24 h, read-out: MIC SA 24h",> 500 µM
same,MIC,"[15]; 48 h, read-out: MIC SA 48h",> 500 µM
same,MIC,"[16]; 24 h, read-out: MIC MRSA 24h",> 500 µM
same,MIC,"[16]; 48 h, read-out: MIC MRSA 48h",> 500 µM
same,MIC,"[5]; CCM8363, 24 h, read-out: MIC AFla 24h",> 500 µM
same,MIC,"[5]; CCM8363, 48 h, read-out: MIC AFla 48h",> 500 µM
same,MIC,"[6]; 24 h, read-out: MIC CP 24h",500 µM
same,MIC,"[6]; 48 h, read-out: MIC CP 48h",500 µM
same,MIC,"[17]; 24 h, read-out: MIC SE 24h",> 500 µM
same,MIC,"[17]; 48 h, read-out: MIC SE 48h",> 500 µM
same,MIC,"[7]; 24 h, read-out: MIC CK 24h",500 µM
same,MIC,"[7]; 48 h, read-out: MIC CK 48h",500 µM
same,MIC,"[8]; ATCC204305, 24 h, read-out: MIC AF 24h",> 500 µM
same,MIC,"[8]; ATCC204305, 48 h, read-out: MIC AF 48h",> 500 µM
same,MIC,"[18]; 24 h, read-out: MIC EC 24h",> 500 µM
same,MIC,"[18]; 48 h, read-out: MIC EC 48h",> 500 µM
same,MIC,"[19]; DSM43999, read-out: MIC M. aurum",250 µg/mL
"CNC(C)C1CCC(N)C(OC2C(N)CC(N)C(OC3OCC(C)(O)C(NC)C3O)C2O)O1 (stereo not drawn) [Gentamicin, gentamicin, reference compound]",MIC,"[10]; internal quality controls, 24h, 95% inhibition of growth, 530 nm, read-out: MIC (µg/mL) EF, spectrophotometric detection",> 8 µg/mL
same,MIC,"[10]; read-out: MIC (µg/mL) EF, Gentamicin – spectrophotometric detection, internal quality controls, 24h",> 8 µg/mL
same,MIC,"[13]; internal quality controls, 24h, 95% inhibition of growth, 530 nm, read-out: MIC (µg/mL) ACI, spectrophotometric detection",8 µg/mL
same,MIC,"[13]; read-out: MIC (µg/mL) ACI, Gentamicin – spectrophotometric detection, internal quality controls, 24h",8 µg/mL
same,MIC,"[14]; internal quality controls, 24h, 95% inhibition of growth, 530 nm, read-out: MIC (µg/mL) PA, spectrophotometric detection",0.5 µg/mL
same,MIC,"[14]; read-out: MIC (µg/mL) PA, Gentamicin – spectrophotometric detection, internal quality controls, 24h",0.5 µg/mL
same,MIC,"[15]; read-out: MIC (µg/mL) SA, Gentamicin – spectrophotometric detection, internal quality controls, 24h",0.5 µg/mL
same,MIC,"[15]; internal quality controls, 24h, 95% inhibition of growth, 530 nm, read-out: MIC (µg/mL) SA, spectrophotometric detection",1 µg/mL
same,MIC,"[16]; read-out: MIC (µg/mL) MRSA, Gentamicin – spectrophotometric detection, internal quality controls, 24h",> 8 µg/mL
same,MIC,"[16]; internal quality controls, 24h, 95% inhibition of growth, 530 nm, read-out: MIC (µg/mL) MRSA, spectrophotometric detection",> 8 µg/mL
same,MIC,"[17]; internal quality controls, 24h, 95% inhibition of growth, 530 nm, read-out: MIC (µg/mL) SE, spectrophotometric detection",0.0625 µg/mL
same,MIC,"[17]; read-out: MIC (µg/mL) SE, Gentamicin – spectrophotometric detection, internal quality controls, 24h",0.0625 µg/mL
same,MIC,"[18]; internal quality controls, 24h, 95% inhibition of growth, 530 nm, read-out: MIC (µg/mL) EC, spectrophotometric detection",1 µg/mL
same,MIC,"[18]; read-out: MIC (µg/mL) EC, Gentamicin – spectrophotometric detection, internal quality controls, 24h",1 µg/mL
"CO[C@H]1/C=C/O[C@@]2(C)Oc3c(C)c(O)c4c(O)c(c(/C=N/N5CCN(C)CC5)c(O)c4c3C2=O)NC(=O)/C(C)=C\C=C\[C@H](C)[C@H](O)[C@@H](C)[C@@H](O)[C@@H](C)[C@H](OC(C)=O)[C@@H]1C [RIF, rifampicin, reference compound]",MIC,"[11]; DSM43465, read-out: MIC M. smegmatis (μg/mL)",1.56 to 6.25 µg/mL
same,MIC,[9]; read-out: MIC Mtb H37Ra (μM),0.0037 µM
same,MIC,[9]; [28],0.00313 µg/mL
same,MIC,"[19]; DSM43999, read-out: MIC M. aurum (μg/mL)",0.39 to 0.78 µg/mL
"C[C@@H](c1ncncc1F)[C@](O)(Cn1cncn1)c1ccc(F)cc1F [Voriconazole, voriconazole, reference compound]",MIC,[1]; [20],> 16 µg/mL
same,IC90,"[1]; read-out: Voriconazole - IC90 spectrophotometric detection, CT",2 µg/mL
same,MIC,[2]; [21],> 16 µg/mL
same,IC90,"[2]; CCM8077, 48 h, read-out: Voriconazole - IC90 spectrophotometric detection, LC",> 16 µg/mL
same,MIC,[3]; [22],> 16 µg/mL
same,IC90,"[3]; ATCC9533|CCM8377, 48 h, read-out: Voriconazole - IC90 spectrophotometric detection, TI",1 µg/mL
same,MIC,[4]; [23],> 16 µg/mL
same,IC90,"[4]; read-out: Voriconazole - IC90 spectrophotometric detection, CA",0.03 µg/mL
same,MIC,[5]; [24],> 16 µg/mL
same,IC90,"[5]; CCM8363, 48 h, read-out: Voriconazole - IC90 spectrophotometric detection, AFla",2 µg/mL
same,MIC,[6]; [25],> 16 µg/mL
same,IC90,"[6]; ATCC22019|CCM8260, 24 h, read-out: Voriconazole - IC90 spectrophotometric detection, CP",0.03 µg/mL
same,MIC,[7]; [26],> 16 µg/mL
same,IC90,"[7]; read-out: Voriconazole - IC90 spectrophotometric detection, CK",0.25 µg/mL
same,MIC,[8]; [27],1 µg/mL
same,IC90,"[8]; ATCC204305, 48 h, read-out: Voriconazole - IC90 spectrophotometric detection, AF",0.25 µg/mL
